Data published in US20250108048A1, “STING AGONIST COMPOUNDS AND CONJUGATES” (SUTRO BIOPHARMA, INC., priority 2023, published 2025).

Key:
Assay type in all cases: cell-based
hSTING-R232 = target: T1, hSTING-R232 (Homo sapiens, UniProt Q86WV6, H232R); test: THP1-Dual KI-hSTING-R232 reporter assay (IRF pathway, secreted Lucia luciferase); conditions: THP1-Dual KI-hSTING-R232 cells, 24 hours; read-out: Reporter assay EC50 (nM) THP-1-R232
T1 construct: host or cells: THP1-Dual KI-hSTING-R232 (from THP1-Dual KO-STING)
Experimental: (§1) The activities of the STING agonists to activate human or mouse STING pathways were evaluated in THP-1-Dual™, THP1-Dual™ KI-hSTING-R232, THP1-Dual™ KI-hSTING-H232 Cells and THP1-Dual™ KI-mSTING Cells. THP-1-Dual™ cells contains hSTING-HAQ haplotype and can be used to evaluate the activity of STING agonists by monitoring the activation of NF-κB pathway and the […] (IFN regulatory factor) pathways. THP1-Dual™ KO-STING cells were generated from THP1-Dual™ cells by stable knockout of the endogenous HAQ STING gene. THP1-Dual™ KI-hSTING-R232 cells, THP1-Dual™ KI-hSTING-H232 cells and THP1-Dual™ KI-mSTING cells were generated by transfecting THP1-Dual™ KO-STING cells with hSTING-R232 or hSTING-H232 or mSTING. Stimulating these reporter cells with a STING agonist activates TRF pathway and induces the production of a secreted Lucia luciferase in the cell culture medium, which can be determined using QUANTI-Luc™ reagent.
(§2) THP-1-Dual™, THP1-Dual™ KI-hSTING-R232, THP1-Dual™ KI-hSTING-H232 and THP1-Dual™ KI-mSTING reporter cells were purchased from Invivogen and maintained in manufacture recommended culture medium with required supplemental antibiotics. On the day of assay, the cells were harvested with Accutase and counted by the Vi-CELL Cell Viability Analyzers. Cells were resuspended in HEK blue detection medium and a total of 10000 cells were seeded in each well of a 384-well flat bottom plate. […] After incubation at 37° C. in a CO2 incubator for 24 hours, 20 μl of cell culture medium per well was transferred into a 384-well white (opaque) plate. 50 μl of QUANTI-Luc™ assay solution was then added to each well and the plate was immediately transferred to an ENVISION® plate reader to measure luminescence (Perkin-Elmer). Relative luminescence readings were converted to fold change of signal using untreated cells as controls. Data was fitted with non-linear regression analysis, using log (agonist) vs. response, variable slope, 4-parameter fit equation using GraphPad Prism. Data was expressed as fold change in signal vs. dose of STING agonist in nM with error bars indicating the Standard Deviation (SD) of the quadruplicates. There result was reported in Table 2 as EC50 (the midpoint of the curve, or concentration at which […] of the maximum effect was observed).

hSTING-HAQ haplotype = target: T2, hSTING-HAQ haplotype (Homo sapiens, UniProt Q86WV6, G230A/H232R/R293Q/R71H); test: THP-1-Dual reporter assay (endogenous hSTING-HAQ); conditions: THP-1-Dual cells (hSTING-HAQ), 24 hours
T2 construct: host or cells: THP-1-Dual
Experimental: as §1, §2

mSTING = target: T3, mSTING (Mus musculus, UniProt Q3TBT3); test: THP1-Dual KI-mSTING reporter assay; set-up: host or cells: THP1-Dual KI-mSTING (from THP1-Dual KO-STING); conditions: THP1-Dual KI-mSTING cells, 24 hours; read-out: Reporter assay EC50 (nM) THP-1 mSTING
T3 sequence (Q3TBT3 1-378): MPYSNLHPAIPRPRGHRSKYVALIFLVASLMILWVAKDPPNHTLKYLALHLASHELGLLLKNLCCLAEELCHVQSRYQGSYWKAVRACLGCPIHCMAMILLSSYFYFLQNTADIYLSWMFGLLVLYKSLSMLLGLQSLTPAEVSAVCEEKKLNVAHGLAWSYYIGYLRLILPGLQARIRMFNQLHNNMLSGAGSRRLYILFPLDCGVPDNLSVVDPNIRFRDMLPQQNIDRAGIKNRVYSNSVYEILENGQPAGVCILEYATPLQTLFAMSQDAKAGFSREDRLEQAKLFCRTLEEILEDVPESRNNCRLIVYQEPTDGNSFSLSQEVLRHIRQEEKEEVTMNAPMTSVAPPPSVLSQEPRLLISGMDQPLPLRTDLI
Experimental: as §1
THP-1-Dual™, THP1-Dual™ KI-hSTING-R232, THP1-Dual™ KI-hSTING-H232 and THP1-Dual™ KI-mSTING reporter cells were purchased from Invivogen and maintained in manufacture recommended culture medium with required supplemental antibiotics. On the day of assay, the cells were harvested with Accutase and counted by the Vi-CELL Cell Viability Analyzers. Cells were resuspended in HEK blue detection medium and a total of 10000 cells were seeded in each well of a 384-well flat bottom plate. Serial dilutions of STING agonists free drugs (1:3 serial dilution starting from 5 uM) was added into treatment wells. After incubation at 37° C. in a CO2 incubator for 24 hours, 20 μl of cell culture medium per well was transferred into a 384-well white (opaque) plate. 50 μl of QUANTI-Luc™ assay solution was then added to each well and the plate was immediately transferred to an ENVISION® plate reader to measure luminescence (Perkin-Elmer). Relative luminescence readings were converted to fold change of signal using untreated cells as controls. Data was fitted with non-linear regression analysis, using log (agonist) vs. response, variable slope, 4-parameter fit equation using GraphPad Prism. Data was expressed as fold change in signal vs. dose of STING agonist in nM with error bars indicating the Standard Deviation (SD) of the quadruplicates. There result was reported in Table 2 as EC50 (the midpoint of the curve, or concentration at which […] of the maximum effect was observed).

hSTING H232 = hSTING H232 (Homo sapiens, UniProt Q86WV6); test: THP1-Dual KI-hSTING-H232 reporter assay (IRF pathway, secreted Lucia luciferase); set-up: host or cells: THP1-Dual KI-hSTING-H232 (from THP1-Dual KO-STING); conditions: THP1-Dual KI-hSTING-H232 cells, 24 hours; read-out: Reporter assay EC50 (nM) THP-1-H232
Experimental: as §1, §2

T1 sequence (Q86WV6 whole entry H232R): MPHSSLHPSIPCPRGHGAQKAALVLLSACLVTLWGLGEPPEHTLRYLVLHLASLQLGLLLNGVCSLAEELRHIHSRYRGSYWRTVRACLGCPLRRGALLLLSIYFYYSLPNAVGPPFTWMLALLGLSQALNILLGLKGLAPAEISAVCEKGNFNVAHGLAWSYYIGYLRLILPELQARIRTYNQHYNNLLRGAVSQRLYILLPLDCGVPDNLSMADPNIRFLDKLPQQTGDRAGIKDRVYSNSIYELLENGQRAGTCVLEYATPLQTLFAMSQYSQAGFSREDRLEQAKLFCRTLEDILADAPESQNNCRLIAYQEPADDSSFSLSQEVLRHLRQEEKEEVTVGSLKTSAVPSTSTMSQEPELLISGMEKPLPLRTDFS
Sequence of hSTING H232 (Q86WV6 whole entry): as the sequence (Q86WV6 whole entry H232R) above, with R232H counted along it
T2 sequence (Q86WV6 whole entry R71H/G230A/H232R/R293Q): as the sequence (Q86WV6 whole entry H232R) above, with R71H, G230A, R293Q counted along it

SMILES	EC50 (hSTING-R232) [nM]	EC50 (hSTING-HAQ haplotype) [nM]	EC50 (mSTING) [nM]	EC50 (hSTING H232) [nM]
CCn1nc(C)cc1C(=O)Nc1nc2cc(C(N)=O)cc(OC)c2n1C/C=C/Cn1c(NC(=O)Cc2cnc(C)o2)nc2cc(C(N)=O)cc(OCCCN3CC4(CNCCO4)C3)c21 [Compound 7]	> 150	> 150	> 150	> 150
CCn1nc(C)cc1C(=O)Nc1nc2cc(C(N)=O)cc(OC)c2n1C/C=C/Cn1c(NC(=O)Cc2cc(C)n(C)n2)nc2cc(C(N)=O)cc(OCCCN3CC4(CNCCO4)C3)c21 [Compound 9]	> 150	> 150	> 150	> 150
CCc1nc(C)oc1C(=O)Nc1nc2cc(C(N)=O)cc(OCCCN3CC4(CNCCO4)C3)c2n1C/C=C/Cn1c(NC(=O)c2cc(C)nn2CC)nc2cc(C(N)=O)cc(OC)c21 [Compound 10]	≤ 50	≤ 50	≤ 50	≤ 50
CCn1nc(C)cc1C(=O)Nc1nc2cc(C(N)=O)cc(OC)c2n1C/C=C/Cn1c(NC(=O)c2oc(C)nc2C)nc2cc(C(N)=O)cc(OCCCN3CC4(CNCCO4)C3)c21 [Compound 11]	≤ 50	> 150	≤ 50	≤ 50
CCn1nc(C)cc1C(=O)Nc1nc2cc(C(N)=O)cc(OC)c2n1C/C=C/Cn1c(NC(=O)C23CCC(C)(CC2)CC3)nc2cc(C(N)=O)cc(OCCCN3CC4(CNCCO4)C3)c21 [Compound 12]	> 150	> 150	> 150	> 150
CCn1nc(C)cc1C(=O)Nc1nc2cc(C(N)=O)cc(OC)c2n1C/C=C/Cn1c(NC(=O)c2cc(C)nn2C)nc2cc(C(N)=O)cc(OCCCN3CC4(CNCCO4)C3)c21 [Compound 13]	≤ 50	≤ 50	≤ 50	≤ 50
CCn1nc(C)cc1C(=O)Nc1nc2cc(C(N)=O)cc(OC)c2n1C/C=C/Cn1c(NC(=O)c2ccnn2CC)nc2cc(C(N)=O)cc(OCCCN3CC4(CNCCO4)C3)c21 [Compound 14]	≤ 50	≤ 50	≤ 50	≤ 50
CCc1cc(C(=O)Nc2nc3cc(C(N)=O)cc(OCCCN4CC5(CNCCO5)C4)c3n2C/C=C/Cn2c(NC(=O)c3cc(C)nn3CC)nc3cc(C(N)=O)cc(OC)c32)n(C)n1 [Compound 15]	> 150	> 150	> 150	> 150
CCn1nc(C)cc1C(=O)Nc1nc2cc(C(N)=O)cc(OC)c2n1C/C=C/Cn1c(NC(=O)c2cc(C)nn2CC)nc2cc(C(N)=O)cc(OCCCN3CC4(C3)CN(C(=O)[C@@H](N)CC(C)C)CCO4)c21 [Compound 16]	≤ 50	≤ 50	≤ 50	≤ 50
CCc1nc(C)oc1C(=O)Nc1nc2cc(C(N)=O)cc(OCCCN3CC4(C3)CN(C(=O)CNC)CCO4)c2n1C/C=C/Cn1c(NC(=O)c2cc(C)nn2CC)nc2cc(C(N)=O)cc(OC)c21 [Compound 18]	50 to 150	50 to 150	> 150	> 150
CCc1nc(C)oc1C(=O)Nc1nc2cc(C(N)=O)cc(OCCCN3CC4(C3)CN(C(=O)[C@H](CC(C)C)NC)CCO4)c2n1C/C=C/Cn1c(NC(=O)c2cc(C)nn2CC)nc2cc(C(N)=O)cc(OC)c21 [Compound 19]	≤ 50	50 to 150	≤ 50	50 to 150
CCc1nc(C)oc1C(=O)Nc1nc2cc(C(N)=O)cc(OCCCN3CC4(C3)CN(C(=O)[C@H](N)CC(C)C)CCO4)c2n1C/C=C/Cn1c(NC(=O)c2cc(C)nn2CC)nc2cc(C(N)=O)cc(OC)c21 [Compound 20]	≤ 50	50 to 150	≤ 50	50 to 150
CCc1nc(C)oc1C(=O)Nc1nc2cc(C(N)=O)cc(OCCCN3CC4(CNCCO4)C3)c2n1C/C=C/Cn1c(NC(=O)c2cc(C)nn2CC)nc2cc(C(N)=O)cnc21 [Compound 23]	≤ 50	50 to 150	50 to 150	≤ 50
CCn1nc(C)cc1C(=O)Nc1nc2cc(C(N)=O)cc3c2n1C/C=C/Cn1c(NC(=O)c2cc(C)nn2CC)nc2cc(C(N)=O)cc(c21)OCC1(CNC1)CO3 [Compound 24, (3E)-7,25-bis[(2-ethyl-5-methyl-pyrazole-3-carbonyl)amino]spiro[14,18-dioxa-1,6,8,24-tetrazapentacyclo[17.6.1.16,9.023,26.013,27]heptacosa-3,7,9,11,13 (27), 19 (26), 20,22,24-nonaene-16,3′-azetidine]-11,21-dicarboxamide; 2,2,2-trifluoroacetic acid]	≤ 50	> 150	> 150	50 to 150
CCc1nc(C)oc1C(=O)Nc1nc2cc(C(N)=O)cc3c2n1C/C=C/Cn1c(NC(=O)c2oc(C)nc2CC)nc2cc(C(N)=O)cc(c21)OCC1(CNC1)CO3 [Compound 25]	≤ 50	> 150	≤ 50	≤ 50
CCc1nc(C)oc1C(=O)Nc1nc2cc(C(N)=O)cc3c2n1C/C=C/Cn1c(NC(=O)c2cc(C)nn2CC)nc2cc(C(N)=O)cc(c21)OCC1(CNC1)CO3 [Compound 26, (3E)-7-[(4-ethyl-2-methyl-oxazole-5-carbonyl)amino]-25-[(2-ethyl-5-methyl-pyrazole-3-carbonyl)amino]spiro[14,18-dioxa-1,6,8,24-tetrazapentacyclo[17.6.1.16,9.023,26.013,27]heptacosa-3,7,9,11,13 (27), 19 (26), 20,22,24-nonaene-16,3′-azetidine]-11,21-dicarboxamide]	≤ 50	> 150	50 to 150	≤ 50
